We go through 25 compounds from US11325900B2, “5-(pyrimidin-4-yl)thiazol-2-yl urea derivatives as therapeutic agents” (AUCENTRA HOLDINGS PTY LTD, priority 2018, dated 2022).

The target in one test is T1, CDK8/CycC (Homo sapiens, UniProt P49336).
T1 construct: purchased ProQinase GmbH, Freiburg, Germany
The experiment in a line: Radiometric protein kinase assay (33PanQinase Activity Assay, ProQinase). Format: biochemical. The note with it: 1.0 μM ATP, 1.0 μg/50 μL substrate RBER-IRStide, duplicate measurements, read-out: CDK8 Kinase inhibition IC50. The method, then:
The kinase activity of CDK8/CycC was measured using a radiometric protein kinase assay (33PanQinase® Activity Assay) by ProQinase GmbH, Freiburg, Germany, with the protocols shown at www.proqinase.com/sites/default/files/public/uploads/WildtypeProfiler/radiometric_assay_v05_2012_manual.pdf. IC50 determination (8.3 nM with 1.0 μM ATP and 1.0 μg/50 μL of substrate RBER-IRStide) was performed as duplicate measurements and calculated using Quattro Workflow V3.1.1 (Quattro Research GmbH, Germany). Apparent inhibition constants (Ki) values were calculated from Km (ATP) and IC50 values for the respective kinases.

In another test the test system is MV-4-11. In words: Cell viability assay (resazurin, leukemia cell lines), 72 h growth inhibition. Format: cell-based. To be noted: Homo sapiens, MV4-11, MV-4-11 cells. An excerpt:
Compounds from Example 1 may be subjected to a standard MTT (3-(4,5-dimethylthiazol-2-yl)-2,5-diphenyltetrazolium bromide) and resazurin assays on solid tumour cell lines and leukemia cell lines, respectively, as previously reported (Wang S et al., J Med Chem 47:1662-1675, 2004 and Diab S e al. CheMedChem 9:962-972, 2014). Compound concentrations required to inhibit 50% of cell growth (GI50) can be calculated using non-linear regression analysis.

The structures appear in SMILES notation.

T1 sequence (P49336 whole entry): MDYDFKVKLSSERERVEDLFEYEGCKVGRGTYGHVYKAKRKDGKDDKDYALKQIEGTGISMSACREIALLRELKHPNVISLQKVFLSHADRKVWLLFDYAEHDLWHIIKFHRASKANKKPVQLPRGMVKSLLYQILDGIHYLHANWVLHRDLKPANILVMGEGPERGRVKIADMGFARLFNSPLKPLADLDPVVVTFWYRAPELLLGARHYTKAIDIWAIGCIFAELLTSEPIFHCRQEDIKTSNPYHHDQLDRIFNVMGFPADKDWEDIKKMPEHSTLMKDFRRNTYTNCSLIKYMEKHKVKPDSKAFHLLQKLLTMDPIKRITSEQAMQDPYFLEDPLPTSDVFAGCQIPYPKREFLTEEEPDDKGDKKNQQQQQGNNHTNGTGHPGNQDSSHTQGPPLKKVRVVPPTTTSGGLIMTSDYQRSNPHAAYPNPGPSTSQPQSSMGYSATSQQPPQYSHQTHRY
T1 sequence (P24863 whole entry partner): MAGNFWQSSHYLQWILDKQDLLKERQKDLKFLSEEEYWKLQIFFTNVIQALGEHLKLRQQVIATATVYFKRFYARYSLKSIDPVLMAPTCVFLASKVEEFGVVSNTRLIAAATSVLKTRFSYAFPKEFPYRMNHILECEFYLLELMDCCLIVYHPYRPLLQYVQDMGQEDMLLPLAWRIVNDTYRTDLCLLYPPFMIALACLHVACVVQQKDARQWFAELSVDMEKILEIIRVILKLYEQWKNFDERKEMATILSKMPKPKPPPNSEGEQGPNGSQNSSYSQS

As to `CNc1nccc(-c2sc(NC(=O)Nc3ccc(F)cc3C)nc2C)n1` [Compound 6, 1-(4-Fluoro-2-methylphenyl)-3-(4-methyl-5-(2-(methylamino)-pyrimidin-4-yl)thiazol-2-yl)urea], on CDK8/CycC, the IC50 (usually the concentration at which inhibition is half-maximal) was determined as 233 nM.

As for `CNc1nccc(-c2sc(NC(=O)Nc3ccc(CN4CCN(S(C)(=O)=O)CC4)c(C(F)(F)F)c3)nc2C)n1` [Compound 36, 1-(4-Methyl-5-(2-(methylamino)-pyrimidin-4-yl)thiazol-2-yl)-3-(4-((4-(methylsulfonyl)piperazin-1-yl)methyl)-3-(trifluoromethyl)-phenyl)urea], the IC50 on CDK8/CycC worked out at 32 nM. Moreover, growth in the test on MV-4-11 was halved (GI50) at 76 ± 10 nM.

As to `Cc1nc(NC(=O)Nc2ccc(CN3CCN(C)CC3)c(C(F)(F)F)c2)sc1-c1ccnc(C(C)C)n1` [Compound 76, 1-(5-(2-Isopropylpyrimidin-4-yl)-4-methylthiazol-2-yl)-3-(4-((4-methylpiperazin-1-yl)methyl)-3-(trifluoromethyl)phenyl)urea], the IC50 at CDK8/CycC worked out at 74 nM. Also, the GI50 (in general, the concentration at which growth is held to half of that of the control) in the test with MV-4-11 is less than 1 nM.

For the compound `CCNc1nccc(-c2sc(NC(=O)Nc3ccc(CN4CCN(CC)CC4)c(C(F)(F)F)c3)nc2C)n1` [Compound 53, 1-(5-(2-(Ethylamino)pyrimidin-4-yl)-4-methylthiazol-2-yl)-3-(4-((4-ethylpiperazin-1-yl)methyl)-3-(trifluoromethyl)phenyl)urea], the IC50 at CDK8/CycC came to 90 nM. Moreover, the GI50 in the test with MV-4-11 was less than 1 nM.

Consider `CC(=O)N1CCN(Cc2ccc(NC(=O)Nc3nc(C)c(-c4ccnc(N(C)C)n4)s3)cc2C(F)(F)F)CC1` [Compound 50, 1-(4-((4-Acetylpiperazin-1-yl)methyl)-3-(trifluoromethyl)-phenyl)-3-(5-(2-(dimethylamino)-pyrimidin-4-yl)-4-methylthiazol-2-yl)urea], for which the concentration for half-maximal inhibition (IC50) at CDK8/CycC turned out to be 202 nM. This compound had a concentration for 50% growth inhibition (GI50) in the test on MV-4-11 of 612 ± 60 nM.

As to `CC(=O)N1CCN(Cc2ccc(NC(=O)Nc3nc(C)c(-c4ccnc(C(C)C)n4)s3)cc2C(F)(F)F)CC1` [Compound 77, 1-(4-((4-Acetylpiperazin-1-yl)methyl)-3-(trifluoromethyl)phenyl)-3-(5-(2-isopropylpyrimidin-4-yl)-4-methylthiazol-2-yl)urea], on CDK8/CycC, the concentration for half-maximal inhibition (IC50) was 169 nM. Further, it took 712 ± 20 nM to inhibit growth in the test with MV-4-11 by half (GI50).

With `CNc1ncc(C#N)c(-c2sc(NC(=O)Nc3ccc(CN4CCN(S(C)(=O)=O)CC4)c(C(F)(F)F)c3)nc2C)n1` [Compound 74, 1-(5-(5-Cyano-2-(methylamino)pyrimidin-4-yl)-4-methylthiazol-2-yl)-3-(4-((4-(methylsulfonyl)piperazin-1-yl)methyl)-3-(trifluoromethyl)phenyl)urea], the IC50 on CDK8/CycC was 272 nM. For the same compound, growth in the test on MV-4-11 was halved (GI50) at 3250 ± 350 nM.

Take `CNc1ncc(Cl)c(-c2sc(NC(=O)Nc3ccc(CN4CCN(S(C)(=O)=O)CC4)c(C(F)(F)F)c3)nc2C)n1` [Compound 69, 1-(5-(5-Chloro-2-(methylamino)pyrimidin-4-yl)-4-methylthiazol-2-yl)-3-(4-((4-(methylsulfonyl)piperazin-1-yl)methyl)-3-(trifluoromethyl)phenyl)urea]: on CDK8/CycC, the IC50 was 132 nM. Besides, the 50% growth inhibitory concentration (GI50) in the test with MV-4-11 was found to be 4690 ± 420 nM.

As to `CCN1CCN(Cc2ccc(NC(=O)Nc3nc(C)c(-c4nc(NC)ncc4Cl)s3)cc2C(F)(F)F)CC1` [Compound 66, 1-(5-(5-Chloro-2-(methylamino)pyrimidin-4-yl)-4-methylthiazol-2-yl)-3-(4-((4-ethylpiperazin-1-yl)methyl)-3-(trifluoromethyl)phenyl)urea], the concentration for half-maximal inhibition (IC50) on CDK8/CycC was 21 nM. The compound also had a GI50 in the test on MV-4-11 of 73 ± 30 nM.

With `CCN1CCN(Cc2ccc(NC(=O)Nc3nc(C)c(-c4ccnc(N)n4)s3)cc2C(F)(F)F)CC1` [Compound 62, 1-(5-(2-Aminopyrimidin-4-yl)-4-methylthiazol-2-yl)-3-(4-((4-ethylpiperazin-1-yl)methyl)-3-(trifluoromethyl)phenyl)urea], the IC50 at CDK8/CycC was 14 nM. In the test with MV-4-11, this compound returned a GI50 of 1 nM.

Regarding `CCNc1nccc(-c2sc(NC(=O)Nc3ccc(CN4CCC(C)CC4)c(C(F)(F)F)c3)nc2C)n1` [Compound 57, 1-(5-(2-(Ethylamino)pyrimidin-4-yl)-4-methylthiazol-2-yl)-3-(4-((4-methylpiperidin-1-yl)methyl)-3-(trifluoromethyl)phenyl)urea], the IC50 on CDK8/CycC was determined as 49 nM. Moreover, growth in the test with MV-4-11 was halved (GI50) at 6160 ± 140 nM.

In the case of `CCN1CCN(Cc2ccc(NC(=O)Nc3ncc(-c4ccnc(NC)n4)s3)cc2C(F)(F)F)CC1` [Compound 59, 1-(4-((4-Ethylpiperazin-1-yl)methyl)-3-(trifluoromethyl)phenyl)-3-(5-(2-(methylamino)pyrimidin-4-yl)thiazol-2-yl)urea], the IC50 on CDK8/CycC is 12 nM. It took 1 nM to inhibit growth in the test on MV-4-11 by half (GI50).

For `CCNc1nccc(-c2sc(NC(=O)Nc3ccc(CN4CCOCC4)c(C(F)(F)F)c3)nc2C)n1` [Compound 56, 1-(5-(2-(Ethylamino)pyrimidin-4-yl)-4-methylthiazol-2-yl)-3-(4-(morpholinomethyl)-3-(trifluoromethyl)phenyl)urea], the half-maximal inhibitory concentration (IC50) on CDK8/CycC stood at 21 nM. The same compound gave a concentration for 50% growth inhibition (GI50) with MV-4-11 of 529 ± 120 nM.

Consider `CCNc1nccc(-c2sc(NC(=O)Nc3ccc(CN4CCN(C(C)C)CC4)c(C(F)(F)F)c3)nc2C)n1` [Compound 54, 1-(5-(2-(ethylamino)pyrimidin-4-yl)-4-methylthiazol-2-yl)-3-(4-((4-isopropylpiperazin-1-yl)methyl)-3-(trifluoromethyl)phenyl)urea], for which the 50% inhibitory concentration (IC50) at CDK8/CycC worked out at 16 nM. The compound further returned a GI50 with MV-4-11 of less than 1 nM.

Turning to `CNc1nccc(-c2cnc(NC(=O)Nc3ccc(CN4CCN(C(C)C)CC4)c(C(F)(F)F)c3)s2)n1` [Compound 60, 1-(4-((4-Isopropylpiperazin-1-yl)methyl)-3-(trifluoromethyl)phenyl)-3-(5-(2-(methylamino)pyrimidin-4-yl)thiazol-2-yl)urea], on CDK8/CycC, the IC50 was determined as 16 nM. The compound further showed a concentration for 50% growth inhibition (GI50) with MV-4-11 of 7 nM.

Regarding `CNc1nccc(-c2sc(NC(=O)Nc3ccc(CN4CCN(C(C)=O)CC4)c(C(F)(F)F)c3)nc2C)n1` [Compound 35, 1-(4-((4-Acetylpiperazin-1-yl)methyl)-3-(trifluoromethyl)-phenyl)-3-(4-methyl-5-(2-(methylamino)pyrimidin-4-yl)thiazol-2-yl)urea], on CDK8/CycC, the IC50 is 14 nM. Moreover, in the test on MV-4-11, growth was halved (GI50) at 85 nM.

Consider `CNc1ncc(C#N)c(-c2sc(NC(=O)Nc3ccc(CN4CCN(C)CC4)c(C(F)(F)F)c3)nc2C)n1` [Compound 71, 1-(5-(5-Cyano-2-(methylamino)pyrimidin-4-yl)-4-methylthiazol-2-yl)-3-(4-((4-methylpiperazin-1-yl)methyl)-3-(trifluoromethyl)phenyl)urea], for which the IC50 on CDK8/CycC came out at 50 nM. In addition, in the test on MV-4-11, halving of growth (GI50) required 200 ± 20 nM.

In the case of `CCNc1nccc(-c2sc(NC(=O)Nc3ccc(CN4CCN(C(C)=O)CC4)c(C(F)(F)F)c3)nc2C)n1` [Compound 55, 1-(4-((4-Acetylpiperazin-1-yl)methyl)-3-(trifluoromethyl)-phenyl)-3-(5-(2-(ethylamino)-pyrimidin-4-yl)-4-methylthiazol-2-yl)urea], the IC50 on CDK8/CycC was found to be 35 nM. In addition, in the test on MV-4-11, growth was halved (GI50) at 214 ± 120 nM.

Regarding `Cc1nc(NC(=O)Nc2ccc(CN3CCN(C)CC3)c(C(F)(F)F)c2)sc1-c1ccnc(N(C)C)n1` [Compound 49, 1-(5-(2-(Dimethylamino)pyrimidin-4-yl)-4-methylthiazol-2-yl)-3-(4-((4-methylpiperazin-1-yl)methyl)-3-(trifluoromethyl)phenyl)urea], on CDK8/CycC, the IC50 turned out to be 82 nM. The compound also yielded a concentration for 50% growth inhibition (GI50) in the test with MV-4-11 of less than 1 nM.

Consider `CCN1CCN(Cc2ccc(NC(=O)Nc3nc(C)c(-c4nc(NC)ncc4C#N)s3)cc2C(F)(F)F)CC1` [Compound 72, 1-(5-(5-Cyano-2-(methylamino)pyrimidin-4-yl)-4-methylthiazol-2-yl)-3-(4-((4-ethylpiperazin-1-yl)methyl)-3-(trifluoromethyl)phenyl)urea], for which the IC50 on CDK8/CycC is 64 nM. The compound also yielded a concentration for 50% growth inhibition (GI50) in the test with MV-4-11 of 432 ± 10 nM.

Take `CNc1nccc(-c2sc(NC(=O)Nc3ccc(C(F)(F)F)cc3)nc2C)n1` [Compound 41, 1-(4-Methyl-5-(2-(methylamino)pyrimidin-4-yl)thiazol-2-yl)-3-(4-(trifluoromethyl)phenyl)urea]: on CDK8/CycC, the IC50 came out at 19 nM.

As for `CNc1nccc(-c2sc(NC(=O)Nc3ccc(F)cc3C(F)(F)F)nc2C)n1` [Compound 7, 1-(4-fluoro-2-(trifluoromethyl)-phenyl)-3-(4-methyl-5-(2-(methylamino)-pyrimidin-4-yl)thiazol-2-yl)urea], the half-inhibitory concentration (IC50) on CDK8/CycC was 2300 nM.

For `CNc1nccc(-c2sc(NC(=O)Nc3ccccc3C(F)(F)F)nc2C)n1` [Compound 2, 1-(4-Methyl-5-(2-(methylamino)-pyrimidin-4-yl)thiazol-2-yl)-3-(2-(trifluoromethyl)phenyl)urea], at CDK8/CycC, the half-maximal inhibitory concentration (IC50) turned out to be 1360 nM.

With `CNc1nccc(-c2sc(NC(=O)Nc3ccc(C(F)(F)F)cc3C(F)(F)F)nc2C)n1` [Compound 8, 1-(2,4-Bis(trifluoromethyl)phenyl)-3-(4-methyl-5-(2-(methylamino)-pyrimidin-4-yl)thiazol-2-yl)urea], the IC50 on CDK8/CycC was determined as 65 nM.

In the case of `CNc1nccc(-c2sc(NC(=O)Nc3ccc(CN4CCCCC4)c(C(F)(F)F)c3)nc2C)n1` [Compound 38, 1-(4-Methyl-5-(2-(methylamino)-pyrimidin-4-yl)thiazol-2-yl)-3-(4-(piperidin-1-ylmethyl)-3-(trifluoromethyl)phenyl)urea], it took 994 ± 130 nM to inhibit growth in the test on MV-4-11 by half (GI50).
